Assay results as given in patent US20170216251A1, “USE OF (+)-1-(3,4-DICHLOROPHENYL)-3-AZABICYCLO[3.1.0]HEXANE TO TREAT ADDICTIVE AND ALCOHOL-RELATED DISORDERS” (priority 2011, published 2017).
“Also recorded” adds a separate entry of the source.

What was measured:
[1] = system: alcohol-preferring (P) rat; assay: binge operant responding experiment in alcohol-preferring (P) rats; format: in vivo
Procedure: P rats were obtained from the Alcohol Research Center at Indiana University School of Medicine. Male P rats were used in all experiments, and were approximately 4-5 months of age and weighed between 420 and 580 g at the outset. Animals were housed individually at an ambient temperature of 21° C., with a normal 12 hour light/dark cycle. All rats were provided ad libitum access to food and water, except during training for operant self-administration studies, during which rats were fluid deprived 23 hr daily during the first 5 days of the training phase. Thereafter, these animals were maintained on ad libitum food and water. All training and experimental sessions for all subjects took place between 9 a.m. and 5 p.m. […] Deionized water was administered as the control injection. Behavioral testing was conducted in standard operant chambers (Coulbourn Instruments, Allentown, Pa.) equipped with two removable levers and two dipper fluid delivery systems enclosed in sound-attenuated cubicles as previously described (Cook et al., 2004). All dipper presentations provided a 1.5-sec access to a 0.1-ml dipper, followed by a 3-sec time out period. […] Responses and reinforcements were recorded and controlled using the 4.0 Coulbourn […] operant software package. […]

[2] = system: high-alcohol preferring (HAP) mouse; assay: binge operant responding experiment in high-alcohol preferring (HAP) mice; format: in vivo; settings: intraperitoneal 25, 50 or 75 mg/kg, FIG. 2
Procedure: The efficacy of (+)-1-(3,4-dichlorophenyl)-3-azabicyclo[3.1.0]hexane to reduce alcohol-drinking behavior was evaluated in the genetically selected high-alcohol preferring (HAP) mouse, an animal model for human alcohol abuse. The effects of (+)-1-(3,4-dichlorophenyl)-3-azabicyclo[3.1.0]hexane on HAP mice were examined in a binge operant responding experiment, using standard protocols.
HAP mice were obtained from the Alcohol Research Center at Indiana University School of Medicine. Animals were housed individually at an ambient temperature of 21° C., with a normal 12 hour light/dark cycle. […]
Behavioral testing was conducted in standard operant chambers (Coulbourn Instruments, Allentown, Pa.) equipped with two removable levers and two dipper fluid delivery systems enclosed in sound-attenuated cubicles as previously described (Cook et al., 2004). […] Responses and reinforcements were recorded and controlled using the 4.0 Coulbourn L2T2 operant software package. […]
For the alcohol and sucrose maintained responding studies, (+)-1-(3,4-dichlorophenyl)-3-azabicyclo[3.1.0]hexane [25, 50, or 75 mg/kg] was injected into each HAP mouse, followed by immediate placement in an operant chamber. […] Six HAP mice were evaluated with each concentration of (+)-1-(3,4-dichlorophenyl)-3-azabicyclo[3.1.0]hexane [25, 50, or 75 mg/kg].

kidney tubules = settings: cynomolgus monkeys; Guha et al., 2011; cited from earlier work
[3] = Phase II, compared to placebo; Sepracor Press Release 2009; cited from earlier work
serotonin transporter = molecular target: T1, serotonin transporter (Homo sapiens, UniProt P31645); settings: PET occupancy study at the doses examined; DeLorenzo et al., 2011; cited from earlier work
T1 construct: host or cells: in vivo brain (PET)
T1 sequence (P31645 whole entry): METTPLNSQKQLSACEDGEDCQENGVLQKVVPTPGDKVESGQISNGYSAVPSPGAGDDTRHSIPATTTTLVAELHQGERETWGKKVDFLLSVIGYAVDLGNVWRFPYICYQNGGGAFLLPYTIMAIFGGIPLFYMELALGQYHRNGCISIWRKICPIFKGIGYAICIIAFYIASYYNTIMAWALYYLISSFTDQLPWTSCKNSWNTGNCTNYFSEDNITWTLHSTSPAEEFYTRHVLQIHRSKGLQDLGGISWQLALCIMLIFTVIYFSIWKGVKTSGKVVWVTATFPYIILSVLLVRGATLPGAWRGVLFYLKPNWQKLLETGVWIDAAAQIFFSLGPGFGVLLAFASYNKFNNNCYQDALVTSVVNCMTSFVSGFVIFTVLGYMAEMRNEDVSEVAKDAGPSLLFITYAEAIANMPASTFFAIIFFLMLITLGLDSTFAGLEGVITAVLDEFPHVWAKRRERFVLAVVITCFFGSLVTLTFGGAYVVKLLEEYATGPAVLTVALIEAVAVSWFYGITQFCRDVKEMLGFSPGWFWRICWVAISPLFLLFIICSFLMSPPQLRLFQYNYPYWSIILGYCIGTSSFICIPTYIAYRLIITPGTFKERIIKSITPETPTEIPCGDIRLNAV

[4] = trial for use in weight loss; Astrup et al., 2008; cited from earlier work
Parkinson's Disease = settings: Phase II clinical trial; Rascol et al., 2008; cited from earlier work
[5] = patients with a preexisting cardiovascular condition, FDA News Release 2010, James et al.; cited from earlier work

Clc1ccc([C@]23CNC[C@H]2C3)cc1Cl [(+)-1-(3,4-dichlorophenyl)-3-azabicyclo[3.1.0]hexane]
effect on sucrose consumption (sucrose maintained responding) ([1]; P rats maintained on sucrose water, oral 3.1-50 mg/kg, 90 min operant session, FIG. 1B): lack of effect | effect on ethanol consumption (alcohol maintained responding) ([1]; P rats, oral 3.1, 6.3, 12.5, 25 or 50 mg/kg 25 min before 90 min operant session, EtOH 10% v/v, FR4, FIG. 1A): demonstrates a dose response; also recorded: decrease in alcohol consumption that was dose-dependent | effect on sucrose consumption (control sucrose responding) ([2]; HAP mice maintained on sucrose water): lack of effect | effect on alcohol consumption (ethanol responding) ([2]; HAP mice, 90 min operant session, EtOH 10% v/v, FR4): demonstrates a dose response; also recorded: dose-dependent decrease in alcohol consumption

CNC[C@H](c1ccc2ccccc2c1)[C@H](O)c1ccccc1 [PRC200-SS]
nephrotoxicity (kidney tubules): acute degenerative damage of kidney tubules

N[C@@H]1CC[C@@H](c2ccc(Cl)c(Cl)c2)c2ccccc21 [SEP-225289]
primary efficacy endpoint as antidepressant [3]: did not meet the primary efficacy endpoint compared to placebo | serotonin transporter occupancy (serotonin transporter): too low at the doses examined to produce an antidepressant effect

CCOC[C@@H]1[C@@H](c2ccc(Cl)c(Cl)c2)C[C@@H]2CC[C@H]1N2C [Tensofensine]
adverse events [4]: gastrointestinal adverse events (dry mouth, nausea, abdominal pain, constipation, diarrhea) | efficacy in treatment of Parkinson's Disease (Parkinson's Disease): not be efficacious

CC(C)CC(N(C)C)C1(c2ccc(Cl)cc2)CCC1 (stereo not shown) [sibutramine]
risk of serious heart events (non-fatal heart attack, non-fatal stroke) [5]: significant increase in the risk of serious heart events
